PubChem BioAssay AID2060885 (Molecular Pharmacology Branch, DTP, NCI, 2025)

Tested on: NCI-H23 complex spheroids with HUVEC/MSC, viability
Test: Anticancer human tumor NCI-H23 cell line growth inhibition [RAS];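 also: spheroids exposed to compound for 7 days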;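 as to viability, T/C: 100% = DMSO vehicle control viability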
Conditions: for IC50: curve of first compound; for viability, T/C: stronger effect = lower value
How it was run: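 Multi-cell-type spheroids: tumor cells plus HUVEC endothelial cells and mesenchymal stem cells. RAS-pathway inhibitors were combined with targeted agents, each dosed in half-log steps down from clinical Cmax, or from 10 microM when Cmax was unknown.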

[1] = second compound 0.00316 µM, first compound 0.0316 µM
[2] = second compound 0.00316 µM, first compound 0.1 µM
[3] = second compound 0.00316 µM, first compound 0.316 µM
[4] = second compound 0.00316 µM, first compound 1 µM
[5] = second compound 0.00316 µM, first compound 3.16 µM
[6] = second compound 0.00316 µM, first compound 10 µM
[7] = second compound 0.01 µM, first compound 0.0316 µM
[8] = second compound 0.01 µM, first compound 0.1 µM
[9] = second compound 0.01 µM, first compound 0.316 µM
[10] = second compound 0.01 µM, first compound 1 µM
[11] = second compound 0.01 µM, first compound 3.16 µM
[12] = second compound 0.01 µM, first compound 10 µM
[13] = second compound 0.0316 µM, first compound 0.0316 µM
[14] = second compound 0.0316 µM, first compound 0.1 µM
[15] = second compound 0.0316 µM, first compound 0.316 µM
[16] = second compound 0.0316 µM, first compound 1 µM
[17] = second compound 0.0316 µM, first compound 3.16 µM
[18] = second compound 0.0316 µM, first compound 10 µM
[19] = second compound 0.1 µM, first compound 0.0316 µM
[20] = second compound 0.1 µM, first compound 0.1 µM
[21] = second compound 0.1 µM, first compound 0.316 µM
[22] = second compound 0.1 µM, first compound 1 µM
[23] = second compound 0.1 µM, first compound 3.16 µM
[24] = second compound 0.1 µM, first compound 10 µM
[25] = second compound 0.316 µM, first compound 0.0316 µM
[26] = second compound 0.316 µM, first compound 0.1 µM
[27] = second compound 0.316 µM, first compound 0.316 µM
[28] = second compound 0.316 µM, first compound 1 µM
[29] = second compound 0.316 µM, first compound 3.16 µM
[30] = second compound 0.316 µM, first compound 10 µM
[31] = second compound 1 µM, first compound 0.0316 µM
[32] = second compound 1 µM, first compound 0.1 µM
[33] = second compound 1 µM, first compound 0.316 µM
[34] = second compound 1 µM, first compound 1 µM
[35] = second compound 1 µM, first compound 3.16 µM
[36] = second compound 1 µM, first compound 10 µM

## CC(C)NCC(C(=O)N1CCN(c2ncnc3c2C(C)CC3O)CC1)c1ccc(Cl)cc1 (stereo unspecified) + C=CC(=O)N1CCN(c2nc(OCC3CCCN3C)nc3c(F)c(-c4nc(N)cc(C)c4C(F)(F)F)c(Cl)cc23)C(C)C1
Second compound 0.00316 µM
  IC50: 548 nM
Second compound 0.01 µM
  IC50: 85.9 nM
Second compound 0.0316 µM
  IC50: < 31.6 nM
Second compound 0.1 µM
  IC50: < 31.6 nM
Second compound 0.316 µM
  IC50: < 31.6 nM
Second compound 1 µM
  IC50: < 31.6 nM
[1]
  viability, T/C: 57.1%
[2]
  viability, T/C: 67.7%
[3]
  viability, T/C: 51.7%
[4]
  viability, T/C: 45.4%
[5]
  viability, T/C: 33.4%
[6]
  viability, T/C: 29.2%
[7]
  viability, T/C: 52.5%
[8]
  viability, T/C: 54.5%
[9]
  viability, T/C: 39.5%
[10]
  viability, T/C: 37%
[11]
  viability, T/C: 28.4%
[12]
  viability, T/C: 20%
[13]
  viability, T/C: 39.1%
[14]
  viability, T/C: 48.1%
[15]
  viability, T/C: 31.2%
[16]
  viability, T/C: 30.2%
[17]
  viability, T/C: 24.3%
[18]
  viability, T/C: 16.9%
[19]
  viability, T/C: 39.3%
[20]
  viability, T/C: 39.4%
[21]
  viability, T/C: 29.9%
[22]
  viability, T/C: 25.8%
[23]
  viability, T/C: 20.2%
[24]
  viability, T/C: 18.8%
[25]
  viability, T/C: 37%
[26]
  viability, T/C: 34.2%
[27]
  viability, T/C: 28.9%
[28]
  viability, T/C: 23.1%
[29]
  viability, T/C: 21.3%
[30]
  viability, T/C: 17.9%
[31]
  viability, T/C: 34.9%
[32]
  viability, T/C: 37.1%
[33]
  viability, T/C: 34.2%
[34]
  viability, T/C: 26.1%
[35]
  viability, T/C: 23.3%
[36]
  viability, T/C: 16.6%

## CC(C)n1nc(-c2ccc3oc(N)nc3c2)c2c(N)ncnc21 + C=CC(=O)N1CCN(c2nc(OCC3CCCN3C)nc3c(F)c(-c4nc(N)cc(C)c4C(F)(F)F)c(Cl)cc23)C(C)C1
Second compound 0.00316 µM
  IC50: 3.25 nM
Second compound 0.01 µM
  IC50: 0.445 nM
Second compound 0.0316 µM
  IC50: < 0.316 nM
Second compound 0.1 µM
  IC50: < 0.316 nM
Second compound 0.316 µM
  IC50: < 0.316 nM
Second compound 1 µM
  IC50: < 0.316 nM
Second compound 0.00316 µM, first compound 0.000316 µM
  viability, T/C: 58.9%
Second compound 0.00316 µM, first compound 0.001 µM
  viability, T/C: 68.7%
Second compound 0.00316 µM, first compound 0.00316 µM
  viability, T/C: 45.9%
Second compound 0.00316 µM, first compound 0.01 µM
  viability, T/C: 35.2%
[1]
  viability, T/C: 27.3%
[2]
  viability, T/C: 17.7%
Second compound 0.01 µM, first compound 0.000316 µM
  viability, T/C: 52.1%
Second compound 0.01 µM, first compound 0.001 µM
  viability, T/C: 44.1%
Second compound 0.01 µM, first compound 0.00316 µM
  viability, T/C: 35.5%
Second compound 0.01 µM, first compound 0.01 µM
  viability, T/C: 25.7%
[7]
  viability, T/C: 21.2%
[8]
  viability, T/C: 16.9%
Second compound 0.0316 µM, first compound 0.000316 µM
  viability, T/C: 39.7%
Second compound 0.0316 µM, first compound 0.001 µM
  viability, T/C: 43.7%
Second compound 0.0316 µM, first compound 0.00316 µM
  viability, T/C: 28.2%
Second compound 0.0316 µM, first compound 0.01 µM
  viability, T/C: 26.2%
[13]
  viability, T/C: 17.3%
[14]
  viability, T/C: 16.9%
Second compound 0.1 µM, first compound 0.000316 µM
  viability, T/C: 37.8%
Second compound 0.1 µM, first compound 0.001 µM
  viability, T/C: 32.5%
Second compound 0.1 µM, first compound 0.00316 µM
  viability, T/C: 26.3%
Second compound 0.1 µM, first compound 0.01 µM
  viability, T/C: 23.8%
[19]
  viability, T/C: 17.9%
[20]
  viability, T/C: 14.2%
Second compound 0.316 µM, first compound 0.000316 µM
  viability, T/C: 30.6%
Second compound 0.316 µM, first compound 0.001 µM
  viability, T/C: 38.3%
Second compound 0.316 µM, first compound 0.00316 µM
  viability, T/C: 29.5%
Second compound 0.316 µM, first compound 0.01 µM
  viability, T/C: 22.3%
[25]
  viability, T/C: 17.1%
[26]
  viability, T/C: 15.8%
Second compound 1 µM, first compound 0.000316 µM
  viability, T/C: 27.9%
Second compound 1 µM, first compound 0.001 µM
  viability, T/C: 33.8%
Second compound 1 µM, first compound 0.00316 µM
  viability, T/C: 32.2%
Second compound 1 µM, first compound 0.01 µM
  viability, T/C: 25.9%
[31]
  viability, T/C: 22.5%
[32]
  viability, T/C: 16.2%

## C[C@@H](NC(=O)c1ncnc(N)c1Cl)c1ncc(C(=O)Nc2cc(C(F)(F)F)c(Cl)cn2)s1 + C=CC(=O)N1CCN(c2nc(OCC3CCCN3C)nc3c(F)c(-c4nc(N)cc(C)c4C(F)(F)F)c(Cl)cc23)C(C)C1
Second compound 0.00316 µM
  IC50: > 10000 nM
Second compound 0.01 µM
  IC50: 201 nM
Second compound 0.0316 µM
  IC50: < 31.6 nM
Second compound 0.1 µM
  IC50: < 31.6 nM
Second compound 0.316 µM
  IC50: < 31.6 nM
Second compound 1 µM
  IC50: < 31.6 nM
[1]
  viability, T/C: 72.2%
[2]
  viability, T/C: 79.4%
[3]
  viability, T/C: 61.5%
[4]
  viability, T/C: 63.1%
[5]
  viability, T/C: 63.2%
[6]
  viability, T/C: 59.6%
[7]
  viability, T/C: 60.9%
[8]
  viability, T/C: 53.3%
[9]
  viability, T/C: 47.8%
[10]
  viability, T/C: 44.7%
[11]
  viability, T/C: 45.8%
[12]
  viability, T/C: 52.4%
[13]
  viability, T/C: 43.6%
[14]
  viability, T/C: 49%
[15]
  viability, T/C: 38.9%
[16]
  viability, T/C: 38.6%
[17]
  viability, T/C: 42%
[18]
  viability, T/C: 40.4%
[19]
  viability, T/C: 43.3%
[20]
  viability, T/C: 46.5%
[21]
  viability, T/C: 36.2%
[22]
  viability, T/C: 42.2%
[23]
  viability, T/C: 45.9%
[24]
  viability, T/C: 39.1%
[25]
  viability, T/C: 42.1%
[26]
  viability, T/C: 37.3%
[27]
  viability, T/C: 40.8%
[28]
  viability, T/C: 40.6%
[29]
  viability, T/C: 42.7%
[30]
  viability, T/C: 41%
[31]
  viability, T/C: 36.4%
[32]
  viability, T/C: 44.4%
[33]
  viability, T/C: 45.4%
[34]
  viability, T/C: 42%
[35]
  viability, T/C: 43.6%
[36]
  viability, T/C: 40.5%
